Values quoted from earlier work in patent US20100179202A1, “ORALLY DISINTEGRATING COMPOSITION OF ZOLMITRIPTAN” (AJANTA PHARMA LIMITED., priority 2009, published 2010).

Settings: background description of the drug substance

solubility in water: readily soluble in water
SMILES: CN(C)CCc1c[nH]c2ccc(C[C@H]3COC(=O)N3)cc12 [Zolmitriptan, (4S)-4-{[3-(2-dimethylaminoethyl)-1H-indol-5-yl]methyl}-1,3-oxazolidin-2-one]
